Data published in patent US20160015803A1, “IMMUNOSTIMULATORY COMBINATIONS AND USE THEREOF” (priority 2014, published 2016).

Tested on: markers of innate activation
Experiment: in vivo activity, markers of innate activation after IV injection
Settings: Rhesus; 24-72 hours after IV injection
From the text: Based on these findings in mice we explored the potential for the use of polyIC-LC/αCD40 combination vaccination in non-human primates (NHP) in order to validate the clinical efficacy. Human anti-human CD40 (Kirin Pharmaceuticals) having the variable heavy and light sequences in the Sequence Listing were produced in cell culture. CD40 binding activity and agonistic activity was confirmed against both human and Rhesus Macaque PBMCs. In vivo activity in Rhesus was also confirmed by examining markers of innate activation 24-72 hours after IV antibody injection. PolyIC-LC was obtained from Oncovir Inc. and its activity was confirmed in vivo similar to the αCD40.

PolyIC-LC
In vivo activity (markers of innate activation): confirmed
